Source: US11452723B2, “Combination dosage form of a mu opioid receptor antagonist and an opioid agent” (THERAVANCE BIOPHARMA R&D IP, LLC, priority 2015, dated 2022)
Where a name gives a salt, the structure may show the parent alone.

Columns and labels:
[1] = as described in U.S. Pat. No. 7,943,772; cited from earlier work
[2] = Excipient compatibility study: chemical stability of films at 40° C./88% RH by HPLC; assay type: physicochemical; settings: T = 0; no coating material (ratio N/A)
Experimental: The compatibility of axelopran with four compositions of commercial coating materials was studied as a function of ratio of coating material to axelopran. Mixtures of axelopran sulfate and the materials of Table 15 were dried at 40° C. in weighing boats to form films. Chemical stability of the films stored at accelerated conditions of 40° C. and 88% relative humidity for 2 weeks were analyzed by HPLC.

mu opioid receptor = target: T1, mu opioid receptor (Homo sapiens, UniProt P35372); settings: non-cancer pain patients on a stable opioid regimen; cited from earlier work
T1 construct: host or cells: patients (endogenous peripheral/gastrointestinal receptors)
T1 sequence (P35372 whole entry): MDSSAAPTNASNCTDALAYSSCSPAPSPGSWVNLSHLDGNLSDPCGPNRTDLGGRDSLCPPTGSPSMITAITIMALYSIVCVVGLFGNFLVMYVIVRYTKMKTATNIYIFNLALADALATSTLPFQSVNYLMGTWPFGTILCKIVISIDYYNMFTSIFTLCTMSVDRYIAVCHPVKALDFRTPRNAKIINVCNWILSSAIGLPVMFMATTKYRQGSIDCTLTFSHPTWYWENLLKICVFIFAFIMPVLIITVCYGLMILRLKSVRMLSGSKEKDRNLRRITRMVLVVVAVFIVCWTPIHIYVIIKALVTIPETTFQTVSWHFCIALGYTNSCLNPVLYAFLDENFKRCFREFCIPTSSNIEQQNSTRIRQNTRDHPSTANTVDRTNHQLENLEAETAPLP

**Q.** Which “stability of solid form (in words)” value [1] does the source give for `NC(=O)c1cccc([C@H]2C[C@H]3CC[C@@H](C2)N3CCN(CC2CCCCC2)C(=O)[C@@H](O)CO)c1` [amorphous axelopran] here?
**A.** not sufficiently stable for use in a drug product

**Q.** With `NC(=O)c1cccc([C@H]2C[C@H]3CC[C@@H](C2)N3CCN(CC2CCCCC2)C(=O)[C@@H](O)CO)c1` [axelopran sulfate] as the molecule, how does the “stability of solid form (in words)” value [1] read?
**A.** forms a stable crystalline form

**Q.** Which results are given for `NC(=O)c1cccc([C@H]2C[C@H]3CC[C@@H](C2)N3CCN(CC2CCCCC2)C(=O)[C@@H](O)CO)c1` [axelopran, 3-((1R,3r,5S)-8-(2-((cyclohexylmethyl)((2S)-2,3-dihydroxypropanoyl)amino)ethyl)-8-azabicyclo[3.2.1]octan-3-yl)benzamide]?
**A.** Axelopran Assay [2]: 99.70 % Area; amelioration of symptoms of opioid induced constipation (in words) (mu opioid receptor): ameliorate the symptoms of OIC in non-cancer pain patients on a stable opioid regimen without compromising analgesia
